# Test results reported in US20250145632A1, “Pyrimidine Heterocyclic Compound, Preparation Method Thereof and use Thereof in Medicine” (INSILICO MEDICINE IP LIMITED, priority 2021, published 2025).
# pIC50, pKi: −log10 of the molar value.
# Tests used:
# [1] = tested on: OVCAR-3 human ovarian adenocarcinoma cells; assay: OVCAR-3 tumor cell proliferation inhibition (CellTiter-Glo); assay type: cell-based; details: 3 d culture
# Procedure: (§1) OVCAR-3 was purchased from ATCC; article No.: HTB-161; RPMI1640 was purchased from Gibco; article No.: 11875-093; Pancreatin (including EDTA) was purchased from Gibco; article No.: 25200-072; FBS was purchased from Gibco; Article No.: 10091-148; CellTiter-Glo was purchased from Promega; article No.: G7573; Bovine insulin was purchased from absin; article No.: abs9169; DMSO was purchased from VWR AMRESCO; article No.: 0231-500ML; Staurosporine was purchased from Selleck; article No.: S1421; a cell counter was purchased from CHEMOMETEC; model: NC-200; and a microplate reader was purchased from PerkinElmer; Model: Envison.
# (§2) OVCAR-3 was human ovarian adenocarcinoma cells cultured in an RPMI-1640 culture medium containing 20% FBS and 0.01 mg/mL of Bovine insulin. Cells in logarithmic phase were taken, and the cells were subjected to digesting, collecting and counting with pancreatin-EDTA, 2000 OVCAR-3 cells/well were inoculated in a 384-well cell plate, and were cultured in 5% CO2 overnight. A 1000× compound stock solution with 3.16 times of gradient concentration was prepared with DMSO, and was diluted 100 times to 10× compound stock solution with a culture medium, and 10× compound stock solution was added into each cell culture well on the next day after cell inoculation, wherein the final concentration was 1×, and the DMSO content was 0.1%. The cell group was treated with DMSO as an experimental control (control), and the cell group was treated with 5 μM of Staurosporine as a blank control (blank).
# [2] = tested on: HCC70 human breast ductal cancer cells; assay: HCC70 tumor cell proliferation inhibition (CellTiter-Glo); assay type: cell-based; details: 3 d culture
# Procedure: as §1, with “HCC70” for “OVCAR-3”, “CRL-2315;” for “HTB-161;”, “article” for “Article”, “10099-141C;” for “10091-148;”, “G7573;” for “G7573; Bovine insulin was purchased from absin; article No.: abs9169;”
# as §2, with “HCC70” for “OVCAR-3”, “breast ductal cancer” for “ovarian adenocarcinoma”, “10% FBS.” for “20% FBS and 0.01 mg/mL of Bovine insulin.”
# [3] = In-vivo pharmacokinetic experiment in male beagles; parameters: species or system dog; details: beagle
# Procedure: Experimental method and conditions: male beagles with weight of 8-11 kg were purchased from Jiangsu Marshall Biotechnology Co., Ltd. The to-be-tested compound was administered to 3 dogs at 0.2 mg/kg or 1.0 mg/kg (solvent: 2% DMSO+10% Kolliphor HS 15+88% (6.818% of hydroxypropyl-beta-cyclodextrin aqueous solution), 0.2 mg/mL or 1.0 mg/mL) by intravenous injection, and administered to 3 dogs at 2 mg/kg (solvent: 5% DMSO+95% (10% hydroxypropyl-beta-cyclodextrin salt aqueous solution, 0.4 mg/mL) by oral intragastric administration. Head vein blood sampling was carried out 5 min, 15 min, 30 min, 1 h, 2 h, 4 h, 8 h and 24 h after the administration, and 500 μL of each sample was collected. After collection, the samples were placed on ice, and plasma was centrifugally separated within 15 min for testing. The concentration of the medicine in the plasma was detected by liquid chromatography-tandem mass spectrometry (LC/MS/MS), and pharmacokinetic parameters were calculated with Phoenix WinNonlin software when the concentration was measured.
# CDK9/Cyclin T1 = CDK9/Cyclin T1 (Homo sapiens (Human), UniProt P50750); assay: In-vitro inhibition of CDK9/Cyclin T1 kinase activity (Caliper mobility shift); assay type: biochemical; details: for pKi: Ki calculated from IC50 under Km ATP condition (Cheng and Prusoff); for Selectivity (CDK9 Ki/CDK7 KD): Ki off-target / KD CDK7 (SPR)
# CDK9/Cyclin T1, sequence (P50750 whole entry): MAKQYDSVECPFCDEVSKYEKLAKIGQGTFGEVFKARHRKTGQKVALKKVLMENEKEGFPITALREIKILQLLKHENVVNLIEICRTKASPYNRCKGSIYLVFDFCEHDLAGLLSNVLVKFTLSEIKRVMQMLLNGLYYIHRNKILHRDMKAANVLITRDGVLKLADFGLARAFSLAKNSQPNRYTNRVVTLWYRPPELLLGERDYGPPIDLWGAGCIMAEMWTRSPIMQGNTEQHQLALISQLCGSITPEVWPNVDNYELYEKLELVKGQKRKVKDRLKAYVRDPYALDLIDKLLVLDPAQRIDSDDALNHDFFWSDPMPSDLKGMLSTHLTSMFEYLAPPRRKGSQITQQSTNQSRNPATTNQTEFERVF
# CDK9/Cyclin T1, sequence (O60563 whole entry partner): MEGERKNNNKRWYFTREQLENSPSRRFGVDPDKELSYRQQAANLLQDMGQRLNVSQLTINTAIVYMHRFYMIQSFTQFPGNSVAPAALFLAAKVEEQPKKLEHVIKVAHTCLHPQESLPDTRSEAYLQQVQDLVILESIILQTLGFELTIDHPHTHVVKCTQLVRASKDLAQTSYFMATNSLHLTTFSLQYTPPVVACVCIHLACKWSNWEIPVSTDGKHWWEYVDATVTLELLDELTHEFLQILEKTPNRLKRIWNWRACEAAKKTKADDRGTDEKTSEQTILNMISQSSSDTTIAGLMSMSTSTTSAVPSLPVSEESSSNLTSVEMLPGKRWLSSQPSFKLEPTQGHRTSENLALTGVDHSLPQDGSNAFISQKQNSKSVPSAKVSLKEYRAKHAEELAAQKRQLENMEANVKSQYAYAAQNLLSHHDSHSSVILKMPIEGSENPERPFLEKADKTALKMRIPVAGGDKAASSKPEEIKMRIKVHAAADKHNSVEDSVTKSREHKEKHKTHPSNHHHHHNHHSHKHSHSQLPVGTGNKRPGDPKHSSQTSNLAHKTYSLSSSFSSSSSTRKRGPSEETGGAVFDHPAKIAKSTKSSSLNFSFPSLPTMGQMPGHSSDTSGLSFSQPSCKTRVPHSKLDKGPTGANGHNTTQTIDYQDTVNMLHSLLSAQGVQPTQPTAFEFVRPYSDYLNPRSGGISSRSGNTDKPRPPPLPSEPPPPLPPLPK
# Excerpt: (§3) CDK2/Cyclin E1 was purchased from Biortus; batch No.: 20150228-BP469/477/691; CDK7/Cyclin H/MAT1 was purchased from Biortus; Batch No.: 20190326-BP487/492/479; CDK9/Cyclin T1 was purchased from Biortus; Batch No.: 20200727-BP488/792/691; CDK12/Cyclin K was purchased from Biortus; Batch No.: 20200526-BP1642/1648/691; MES was purchased from BiRoYee (Baoruyi); Batch No.: 67GR9637; BSA was purchased from Aladdin; Batch No.: H1601024; ATP was purchased from VWR; Batch No.: 97061-226; EDTA was purchased from Sinopharm Group; Batch No.: 20200521; and staurosporine was purchased from Selleckchem; Batch No.: S1421.
# (§4) This experiment was used for determining the inhibition of the activities of CDK2, CDK7, CDK9 and CDK12 kinases by the compound. The kinase reaction carried out by the present invention was measured in a 384-well plate, the final measured volume was 16 μl, and the reaction temperature was 27° C. The concentrations of the kinases were determined by optimization experiment. The specific experimental process was as follows: • 1) preparation of kinase solutions: • kinase solution (CDK2/Cyclin E1): the kinase was diluted in a assay buffer solution ((20 mM MES pH 6.75, 0.01% Tween 20, 0.05 mg/mL BSA, 2 mM MgCl2) to obtain an enzyme solution with the corresponding 2.4× concentration; • kinase solution (CDK7/Cyclin H/MAT1): the kinase was diluted in the assay buffer solution (20 mM MES pH 6.75, 0.01% Tween 20, 0.05 mg/mL BSA, 6 mM MgCl2) to obtain an enzyme solution with the corresponding 2.4× concentration; • kinase solution (CDK9/Cyclin T1): the kinase was diluted in the assay buffer solution (20 mM MES pH 6.75, 0.01% Tween 20, 0.05 mg/mL BSA, 10 mM MgCl2) to obtain an enzyme solution with the corresponding 2.4× concentration; and • kinase solution (CDK12/Cyclin K): the kinase was diluted in a assay buffer solution (80 mM MES pH 6.5, 0.01% Tween 20, 0.05 mg/mL BSA, 10 mM MgCl2) to obtain an enzyme solution with the corresponding 2.4× concentration. • 2) Preparation of compound solutions: the compound was dissolved in dimethyl sulfoxide (DMSO) at a concentration of 10 mM, the compound was diluted to 10 concentration gradients of 25 nM to 500 μM with DMSO during use, diluted in ultrapure water by 8.3 times respectively to obtain compound solutions with 6× concentration. • 3) Preparation of a polypeptide substrate and ATP solution: the polypeptide substrate and ATP were diluted in the assay buffer solution to obtain a polypeptide substrate and ATP mixed solution with 2.4× concentration. • 4) Kinase reaction process: • 2 ul of the test compound solution, 5 ul of the polypeptide substrate and ATP mixed solution and 5 ul of an enzyme solution were mixed and incubated at 27° C. (CDK2 was incubated for 60 min, CDK7 was incubated for 70 min, CDK9 was incubated for 70 min, and CDK12 was incubated for 280 min), and then 4 ul of EDTA with a concentration of 150 mM was added into each sample to terminate the reaction. […] The data was calculated with GraphPad Prism version 9.0, and an IC50 value was obtained by adjusting a nonlinear regression model using a dose reaction curve. The calculation formula was Y=Bottom+(Top-Bottom)/(1+10^((LogIC50−X)*HillSlope)). X represents a log value (log of dose or concentration); Y represents an inhibition rate (% inhibition, increasing as x increases) which was increased along with the increase of X; Top represents maximum response; Bottom represents baseline response; and HillSlope represents a curve slope.
# CDK12/Cyclin K = CDK12/Cyclin K (Homo sapiens (Human), UniProt Q9NYV4); assay: In-vitro inhibition of CDK12/Cyclin K kinase activity (Caliper mobility shift); assay type: biochemical; details: for pKi: Ki calculated from IC50 under Km ATP condition (Cheng and Prusoff); for Selectivity (CDK12 Ki/CDK7 KD): Ki off-target / KD CDK7 (SPR)
# CDK12/Cyclin K, sequence (Q9NYV4 whole entry): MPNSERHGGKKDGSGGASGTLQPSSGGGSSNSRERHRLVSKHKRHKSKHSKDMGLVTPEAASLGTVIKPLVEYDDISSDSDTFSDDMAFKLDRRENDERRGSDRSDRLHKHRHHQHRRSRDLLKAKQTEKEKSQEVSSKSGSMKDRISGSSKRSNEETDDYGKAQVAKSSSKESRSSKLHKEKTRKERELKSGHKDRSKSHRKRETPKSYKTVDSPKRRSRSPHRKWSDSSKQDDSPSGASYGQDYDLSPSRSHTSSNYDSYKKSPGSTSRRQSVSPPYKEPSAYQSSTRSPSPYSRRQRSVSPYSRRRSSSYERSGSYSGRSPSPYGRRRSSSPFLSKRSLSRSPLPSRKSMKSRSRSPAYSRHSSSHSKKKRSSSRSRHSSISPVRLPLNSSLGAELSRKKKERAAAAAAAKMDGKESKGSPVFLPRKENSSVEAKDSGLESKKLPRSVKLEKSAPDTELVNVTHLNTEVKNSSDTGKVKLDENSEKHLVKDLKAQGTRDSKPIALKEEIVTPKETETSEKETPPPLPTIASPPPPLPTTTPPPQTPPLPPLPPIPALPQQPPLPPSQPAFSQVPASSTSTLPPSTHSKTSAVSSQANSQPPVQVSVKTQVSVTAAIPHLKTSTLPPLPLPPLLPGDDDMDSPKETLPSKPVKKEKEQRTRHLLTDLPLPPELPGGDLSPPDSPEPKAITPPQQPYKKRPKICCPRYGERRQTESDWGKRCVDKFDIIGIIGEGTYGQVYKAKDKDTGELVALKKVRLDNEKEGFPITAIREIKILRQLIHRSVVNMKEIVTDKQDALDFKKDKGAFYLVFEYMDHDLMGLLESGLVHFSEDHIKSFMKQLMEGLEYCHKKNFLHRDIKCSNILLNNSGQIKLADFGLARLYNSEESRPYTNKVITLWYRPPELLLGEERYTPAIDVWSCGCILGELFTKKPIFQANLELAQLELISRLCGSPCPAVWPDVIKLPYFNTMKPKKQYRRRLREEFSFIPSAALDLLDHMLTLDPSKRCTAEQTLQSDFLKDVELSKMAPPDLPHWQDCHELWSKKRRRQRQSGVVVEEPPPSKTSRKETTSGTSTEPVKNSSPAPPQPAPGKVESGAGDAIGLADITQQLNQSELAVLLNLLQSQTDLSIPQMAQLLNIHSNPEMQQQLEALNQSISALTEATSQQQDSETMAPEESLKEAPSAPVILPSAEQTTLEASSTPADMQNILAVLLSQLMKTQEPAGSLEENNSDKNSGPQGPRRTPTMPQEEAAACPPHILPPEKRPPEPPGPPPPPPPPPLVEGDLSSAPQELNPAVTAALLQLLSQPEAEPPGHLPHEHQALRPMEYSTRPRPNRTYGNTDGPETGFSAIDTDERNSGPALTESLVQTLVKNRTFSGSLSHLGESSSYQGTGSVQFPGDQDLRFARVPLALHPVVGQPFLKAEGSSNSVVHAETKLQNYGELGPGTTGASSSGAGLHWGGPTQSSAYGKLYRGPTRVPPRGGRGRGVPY
# CDK12/Cyclin K, sequence (O75909 whole entry partner): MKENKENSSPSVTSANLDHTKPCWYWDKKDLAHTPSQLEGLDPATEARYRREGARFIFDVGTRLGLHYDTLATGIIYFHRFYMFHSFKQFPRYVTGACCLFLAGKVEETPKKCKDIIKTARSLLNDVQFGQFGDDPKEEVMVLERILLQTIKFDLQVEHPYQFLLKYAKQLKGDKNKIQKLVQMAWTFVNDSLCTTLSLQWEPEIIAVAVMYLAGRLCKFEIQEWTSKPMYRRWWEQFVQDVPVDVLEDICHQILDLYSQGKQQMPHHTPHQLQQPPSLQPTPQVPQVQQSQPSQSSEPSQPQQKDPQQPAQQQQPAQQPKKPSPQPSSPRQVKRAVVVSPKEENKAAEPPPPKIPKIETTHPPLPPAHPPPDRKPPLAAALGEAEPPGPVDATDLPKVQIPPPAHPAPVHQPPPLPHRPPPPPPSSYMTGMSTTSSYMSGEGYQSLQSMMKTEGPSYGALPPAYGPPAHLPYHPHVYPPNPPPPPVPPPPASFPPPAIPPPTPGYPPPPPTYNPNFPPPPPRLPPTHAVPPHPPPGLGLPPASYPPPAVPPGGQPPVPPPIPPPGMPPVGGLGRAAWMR
# Excerpt: as §3, §4
# CDK7/Cyclin H/MAT1 = CDK7/Cyclin H/MAT1 (Homo sapiens (Human), UniProt P50613); assay: In-vitro inhibition of CDK7/Cyclin H/MAT1 kinase activity (Caliper mobility shift); assay type: biochemical; details: ATP 50 μM, 70 min, 27° C.; read-out: CDK7/CyclinH/MAT1 IC50 assay
# CDK7/Cyclin H/MAT1, sequence (P50613 whole entry): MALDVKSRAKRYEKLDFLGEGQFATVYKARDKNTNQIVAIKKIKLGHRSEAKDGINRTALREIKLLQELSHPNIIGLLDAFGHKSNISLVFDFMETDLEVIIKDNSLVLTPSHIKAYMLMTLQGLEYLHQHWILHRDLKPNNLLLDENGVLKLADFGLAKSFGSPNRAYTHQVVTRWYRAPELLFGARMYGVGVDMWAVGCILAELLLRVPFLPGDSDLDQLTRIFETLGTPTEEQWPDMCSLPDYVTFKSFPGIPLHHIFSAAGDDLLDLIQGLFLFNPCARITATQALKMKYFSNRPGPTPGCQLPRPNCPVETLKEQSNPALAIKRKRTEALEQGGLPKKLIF
# CDK7/Cyclin H/MAT1, sequence (P51946 whole entry partner): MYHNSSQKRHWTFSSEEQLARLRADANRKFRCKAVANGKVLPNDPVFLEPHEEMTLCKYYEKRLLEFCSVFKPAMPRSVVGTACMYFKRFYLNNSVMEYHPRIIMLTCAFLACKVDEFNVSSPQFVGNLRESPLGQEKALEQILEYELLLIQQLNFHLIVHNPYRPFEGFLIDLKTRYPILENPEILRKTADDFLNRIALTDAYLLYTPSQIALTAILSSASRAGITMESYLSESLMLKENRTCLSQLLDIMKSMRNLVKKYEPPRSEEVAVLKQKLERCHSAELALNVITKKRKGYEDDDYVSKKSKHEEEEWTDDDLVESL
# CDK7/Cyclin H/MAT1, sequence (P51948 whole entry partner): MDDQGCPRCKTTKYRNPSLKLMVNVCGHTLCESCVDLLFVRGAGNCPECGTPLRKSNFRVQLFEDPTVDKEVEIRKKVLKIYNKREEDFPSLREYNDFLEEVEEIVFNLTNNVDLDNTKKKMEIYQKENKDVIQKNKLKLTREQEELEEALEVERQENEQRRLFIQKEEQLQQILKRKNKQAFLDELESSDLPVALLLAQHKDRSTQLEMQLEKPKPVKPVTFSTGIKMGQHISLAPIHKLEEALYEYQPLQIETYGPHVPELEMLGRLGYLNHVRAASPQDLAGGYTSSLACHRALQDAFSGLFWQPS
# Excerpt: as §3
# This experiment was used for determining the inhibition of the activities of CDK2, CDK7, CDK9 and CDK12 kinases by the compound. The kinase reaction carried out by the present invention was measured in a 384-well plate, the final measured volume was 16 μl, and the reaction temperature was 27° C. The concentrations of the kinases were determined by optimization experiment. […] The data was calculated with GraphPad Prism version 9.0, and an IC50 value was obtained by adjusting a nonlinear regression model using a dose reaction curve. […]
# CDK2/Cyclin E1 = CDK2/Cyclin E1 (Homo sapiens (Human), UniProt P24941); assay: In-vitro inhibition of CDK2/Cyclin E1 kinase activity (Caliper mobility shift); assay type: biochemical; details: for pKi: Ki calculated from IC50 under Km ATP condition (Cheng and Prusoff); for Selectivity (CDK2 Ki/CDK7 KD): Ki off-target / KD CDK7 (SPR)
# Excerpt: as §3, §4
# [4] = intravenous injection 0.2 mg/kg
Compound,pIC50 [1],"AUC0~inf [3, 4] [ng·h/mL]","CL [3, 4] [mL/min/kg]","T1/2 [3, 4] [h]","Vss [3, 4] [L/kg]",AUC0~inf ([3]; oral administration 2 mg/kg) [ng·h/mL],Cmax ([3]; oral administration 2 mg/kg) [ng/mL],F(%) ([3]; oral administration 2 mg/kg),T1/2 ([3]; oral administration 2 mg/kg) [h],pKi (CDK9/Cyclin T1),pKi (CDK12/Cyclin K),Selectivity (CDK12 Ki/CDK7 KD) (CDK12/Cyclin K),pIC50 (CDK7/Cyclin H/MAT1),pKi (CDK2/Cyclin E1),Selectivity (CDK2 Ki/CDK7 KD) (CDK2/Cyclin E1),Selectivity (CDK9 Ki/CDK7 KD) (CDK9/Cyclin T1),pIC50 [2]
"CN1CC(F)(F)CCN(C)[C@H]2CC[C@@H](C2)Nc2ncc(C(F)(F)F)c(n2)-c2c[nH]c3c(P(C)(C)=O)c(ccc23)C1=O [Compound Z65, (4^1S,43S)-1^7-(dimethylphosphoryl)-8,8-difluoro-5,10-dimethyl-2^5-(trifluoromethyl)-1^1H-3,5,10-triaza-1(3,6)-indola-2(4,2)-pyrimidina-4(1,3)-cyclopentanacycloundecaphan-11-one]",6.60,3097,1.23,3.42,0.24,45620,6623,147,4.44,6.59,,,,,,,7.33
"CP(C)(=O)c1c2ccc3c(c[nH]c13)-c1nc(ncc1C(F)(F)F)N[C@H]1CC[C@@H](C1)NCCOCCNC2=O [Compound Z7, (4^1S,4^3S)-1^7-(dimethylphosphoryl)-2^5-(trifluoromethyl)-1H-8-oxa-3,5,11-triaza-1(3,6)-indola-2(4,2)-pyrimidina-4(1,3)-cyclopentanacyclododecaphan-12-one]",,,,,,,,,,6.66,7.21,(CDK12 Ki/CDK7 KD): 61.35,,7.48,(CDK2 Ki/CDK7 KD): 566,(CDK9 Ki/CDK7 KD): 3675,7.39
CP(C)(=O)c1c2ccc3c(c[nH]c13)-c1nc(ncc1C(F)(F)F)N[C@H]1CC[C@@H](C1)NCCCCNC2=O [Compound Z5],,,,,,,,,,7.02,7.58,(CDK12 Ki/CDK7 KD): 163,,7.59,(CDK2 Ki/CDK7 KD): 160,(CDK9 Ki/CDK7 KD): 597,7.37
"CN1C[C@@H](F)CCN(C)[C@H]2CC[C@@H](C2)Nc2ncc(C(F)(F)F)c(n2)-c2c[nH]c3c(P(C)(C)=O)c(ccc23)C1=O [Compound Z79, (4^1S,4^3S,8S)-1^7-(dimethylphosphoryl)-8-fluoro-5,10-dimethyl-2^5-(trifluoromethyl)-1^1H-3,5,10-triaza-1(3,6)-indola-2(4,2)-pyrimidina-4(1,3)-cyclopentanacycloundecaphan-11-one]",7.08,,,,,,,,,6.87,7.03,(CDK12 Ki/CDK7 KD): 763,,7.63,(CDK2 Ki/CDK7 KD): 192,(CDK9 Ki/CDK7 KD): 1103,7.18

# These reach a higher pKi (CDK9/Cyclin T1). Values come first.
pIC50 [1],"AUC0~inf [3, 4] [ng·h/mL]","CL [3, 4] [mL/min/kg]","T1/2 [3, 4] [h]","Vss [3, 4] [L/kg]",AUC0~inf ([3]; oral administration 2 mg/kg) [ng·h/mL],Cmax ([3]; oral administration 2 mg/kg) [ng/mL],F(%) ([3]; oral administration 2 mg/kg),T1/2 ([3]; oral administration 2 mg/kg) [h],pKi (CDK9/Cyclin T1),pKi (CDK12/Cyclin K),Selectivity (CDK12 Ki/CDK7 KD) (CDK12/Cyclin K),pIC50 (CDK7/Cyclin H/MAT1),pKi (CDK2/Cyclin E1),Selectivity (CDK2 Ki/CDK7 KD) (CDK2/Cyclin E1),Selectivity (CDK9 Ki/CDK7 KD) (CDK9/Cyclin T1),Compound,pIC50 [2]
,,,,,,,,,7.28,7.20,,7.96,6.81,,,"O=C1NCCOCCN2CC[C@@H](C2)Nc2ncc(C(F)(F)F)c(n2)-c2c[nH]c3cc1ccc23 [Compound Z1, (4^3S)-2^5-(trifluoromethyl)-1^1H-7-oxa-3,10-diaza-1(3,6)-indola-2(4,2)-pyrimidina-4(3,1)-pyrrolidinacycloundecaphan-11-one]",
,,,,,,,,,7.97,7.64,(CDK12 Ki/CDK7 KD): 162,8.34,8.01,(CDK2 Ki/CDK7 KD): 70,(CDK9 Ki/CDK7 KD): 76,"(4^1S, 4^3S)-2^5-(trifluoromethyl)-1^1H-3,5,10-triaza-1(3,6)-indola-2(4,2)-pyrimidina-4(1,3)-cyclopentanacycloundecaphan-11-one [Compound Z2]",6.68
